Reference: the CheMixHub viscosity set
Values joined by “and” are separate entries in the source; they are usually repeats but may differ in a detail not shown here. Equal entries are not always repeated. ± gives the uncertainty stated by the source.

Experiment: xn = mol fraction of the nth substance listed

Compound: O=C[C@H](O)[C@@H](O)[C@H](O)[C@H](O)CO + O
- viscosity (293.15 K, 101 kPa, x1 = 0.002): 1.043 ± 0.022 mPa·s
- viscosity (293.15 K, 101 kPa, x1 = 0.0026): 1.079 ± 0.011 mPa·s
- viscosity (293.15 K, 101 kPa, x1 = 0.005): 1.13 ± 0.024 mPa·s
- viscosity (293.15 K, 101 kPa, x1 = 0.011): 1.24 ± 0.08 mPa·s and 1.34 ± 0.1 mPa·s
- viscosity (293.15 K, 101 kPa, x1 = 0.0244): 1.95 ± 0.12 mPa·s
- viscosity (293.15 K, 101 kPa, x1 = 0.0411): 3.01 ± 0.18 mPa·s
- viscosity (293.15 K, 101 kPa, x1 = 0.0625): 5.4 ± 0.33 mPa·s
- viscosity (293.15 K, 101.3 kPa, x1 = 0.001): 1.021 ± 0.022 mPa·s
- viscosity (298.15 K, 100 kPa, x1 = 0.0009): 1.019 ± 0.0084 mPa·s
- viscosity (298.15 K, 101 kPa, x1 = 0.0002): 0.9013 ± 0.09 mPa·s
- viscosity (298.15 K, 101 kPa, x1 = 0.0005): 0.9169 ± 0.092 mPa·s
- viscosity (298.15 K, 101 kPa, x1 = 0.001): 0.9634 ± 0.097 mPa·s
- viscosity (298.15 K, 101 kPa, x1 = 0.0018): 0.9874 ± 0.099 mPa·s
- viscosity (298.15 K, 101 kPa, x1 = 0.002): 0.9826 ± 0.098 mPa·s
- viscosity (298.15 K, 101 kPa, x1 = 0.00413): 0.9934 ± 0.025 mPa·s
- viscosity (298.15 K, 101 kPa, x1 = 0.005): 1.015 ± 0.021 mPa·s
- viscosity (298.15 K, 101 kPa, x1 = 0.00623): 1.03 ± 0.026 mPa·s
- viscosity (298.15 K, 101 kPa, x1 = 0.011): 1.15 ± 0.08 mPa·s
- viscosity (298.15 K, 101 kPa, x1 = 0.02): 1.42 ± 0.013 mPa·s
- viscosity (298.15 K, 101 kPa, x1 = 0.0244): 1.68 ± 0.1 mPa·s
- viscosity (298.15 K, 101 kPa, x1 = 0.0411): 2.48 ± 0.15 mPa·s
- viscosity (298.15 K, 101 kPa, x1 = 0.0625): 4.48 ± 0.27 mPa·s
- viscosity (298.15 K, 101 kPa, x1 = 0.0909): 8.75 ± 0.53 mPa·s and 12.75 ± 0.77 mPa·s
- viscosity (303.15 K, 100 kPa, x1 = 0.0009): 0.9332 ± 0.0081 mPa·s
- viscosity (303.15 K, 101 kPa, x1 = 0.002): 0.8392 ± 0.017 mPa·s
- viscosity (303.15 K, 101 kPa, x1 = 0.004): 0.8723 ± 0.018 mPa·s
- viscosity (303.15 K, 101 kPa, x1 = 0.005): 0.9084 ± 0.019 mPa·s
- viscosity (303.15 K, 101.3 kPa, x1 = 0.001): 0.814 ± 0.018 mPa·s
- viscosity (308.15 K, 100 kPa, x1 = 0.0009): 0.8522 ± 0.0078 mPa·s
- viscosity (308.15 K, 101 kPa, x1 = 0.00209): 0.7871 ± 0.02 mPa·s
- viscosity (308.15 K, 101 kPa, x1 = 0.004): 0.7909 ± 0.017 mPa·s
- viscosity (308.15 K, 101 kPa, x1 = 0.00413): 0.8216 ± 0.021 mPa·s
- viscosity (308.15 K, 101 kPa, x1 = 0.005): 0.8313 ± 0.017 mPa·s
- viscosity (308.15 K, 101 kPa, x1 = 0.008982): 0.911 ± 0.019 mPa·s
- viscosity (308.15 K, 101 kPa, x1 = 0.011): 0.98 ± 0.06 mPa·s and 1.05 ± 0.07 mPa·s
- viscosity (308.15 K, 101 kPa, x1 = 0.01441): 1.037 ± 0.022 mPa·s
- viscosity (308.15 K, 101 kPa, x1 = 0.0179): 1.134 ± 0.024 mPa·s
- viscosity (308.15 K, 101 kPa, x1 = 0.02): 1.133 ± 0.0097 mPa·s and 1.086 ± 0.11 mPa·s
- viscosity (308.15 K, 101 kPa, x1 = 0.02311): 1.278 ± 0.028 mPa·s
- viscosity (308.15 K, 101 kPa, x1 = 0.0244): 1.34 ± 0.08 mPa·s
- viscosity (308.15 K, 101 kPa, x1 = 0.02991): 1.442 ± 0.032 mPa·s
- viscosity (308.15 K, 101 kPa, x1 = 0.03509): 1.711 ± 0.038 mPa·s
- viscosity (308.15 K, 101 kPa, x1 = 0.0411): 1.94 ± 0.12 mPa·s
- viscosity (308.15 K, 101 kPa, x1 = 0.05203): 2.579 ± 0.059 mPa·s
- viscosity (308.15 K, 101 kPa, x1 = 0.0591): 3.084 ± 0.071 mPa·s
- viscosity (308.15 K, 101 kPa, x1 = 0.0625): 3.31 ± 0.2 mPa·s
- viscosity (308.15 K, 101 kPa, x1 = 0.0909): 6.58 ± 0.4 mPa·s and 9 ± 0.55 mPa·s
- viscosity (313.15 K, 100 kPa, x1 = 0.0009): 0.7853 ± 0.0076 mPa·s
- viscosity (313.15 K, 101 kPa, x1 = 0.002): 0.6943 ± 0.015 mPa·s
- viscosity (313.15 K, 101 kPa, x1 = 0.004): 0.7341 ± 0.015 mPa·s
- viscosity (313.15 K, 101 kPa, x1 = 0.005): 0.7858 ± 0.016 mPa·s
- viscosity (313.15 K, 101 kPa, x1 = 0.011): 0.81 ± 0.05 mPa·s and 0.97 ± 0.06 mPa·s
- viscosity (313.15 K, 101 kPa, x1 = 0.02): 1.022 ± 0.0089 mPa·s and 0.9825 ± 0.098 mPa·s
- viscosity (313.15 K, 101 kPa, x1 = 0.0244): 1.19 ± 0.07 mPa·s
- viscosity (313.15 K, 101 kPa, x1 = 0.0411): 1.69 ± 0.1 mPa·s
- viscosity (313.15 K, 101 kPa, x1 = 0.0625): 2.96 ± 0.18 mPa·s
- viscosity (313.15 K, 101 kPa, x1 = 0.0909): 4.88 ± 0.3 mPa·s and 5.67 ± 0.35 mPa·s
- viscosity (313.15 K, 101 kPa, x1 = 0.13): 13.08 ± 0.79 mPa·s and 11.8 ± 3.1 mPa·s
- viscosity (313.15 K, 101.3 kPa, x1 = 0.001): 0.671 ± 0.014 mPa·s
- viscosity (318.15 K, 101 kPa, x1 = 0.008982): 0.756 ± 0.016 mPa·s
- viscosity (318.15 K, 101 kPa, x1 = 0.011): 0.71 ± 0.04 mPa·s and 0.85 ± 0.05 mPa·s
- viscosity (318.15 K, 101 kPa, x1 = 0.01441): 0.861 ± 0.018 mPa·s
- viscosity (318.15 K, 101 kPa, x1 = 0.0179): 0.941 ± 0.02 mPa·s
- viscosity (318.15 K, 101 kPa, x1 = 0.02): 0.9234 ± 0.0081 mPa·s and 0.8774 ± 0.088 mPa·s
- viscosity (318.15 K, 101 kPa, x1 = 0.02311): 1.061 ± 0.023 mPa·s
- viscosity (318.15 K, 101 kPa, x1 = 0.0244): 1.05 ± 0.06 mPa·s
- viscosity (318.15 K, 101 kPa, x1 = 0.02991): 1.197 ± 0.026 mPa·s
- viscosity (318.15 K, 101 kPa, x1 = 0.03509): 1.42 ± 0.032 mPa·s
- viscosity (318.15 K, 101 kPa, x1 = 0.0411): 1.43 ± 0.09 mPa·s
- viscosity (318.15 K, 101 kPa, x1 = 0.05203): 2.141 ± 0.049 mPa·s
- viscosity (318.15 K, 101 kPa, x1 = 0.0591): 2.561 ± 0.06 mPa·s
- viscosity (318.15 K, 101 kPa, x1 = 0.0625): 2.47 ± 0.15 mPa·s
- viscosity (318.15 K, 101 kPa, x1 = 0.0909): 3.91 ± 0.24 mPa·s and 4.65 ± 0.28 mPa·s
- viscosity (318.15 K, 101 kPa, x1 = 0.13): 10.56 ± 0.64 mPa·s and 8 ± 1.9 mPa·s
- viscosity (323.15 K, 101 kPa, x1 = 0.011): 0.72 ± 0.04 mPa·s and 0.78 ± 0.05 mPa·s
- viscosity (323.15 K, 101 kPa, x1 = 0.02): 0.8435 ± 0.0075 mPa·s and 0.7914 ± 0.079 mPa·s
- viscosity (323.15 K, 101 kPa, x1 = 0.0244): 0.97 ± 0.06 mPa·s
- viscosity (323.15 K, 101 kPa, x1 = 0.0411): 1.29 ± 0.08 mPa·s
- viscosity (323.15 K, 101 kPa, x1 = 0.0625): 2.19 ± 0.13 mPa·s
- viscosity (323.15 K, 101 kPa, x1 = 0.0909): 3.68 ± 0.22 mPa·s and 4.56 ± 0.28 mPa·s
- viscosity (323.15 K, 101 kPa, x1 = 0.13): 8.63 ± 0.52 mPa·s and 7.5 ± 1.3 mPa·s

Compound: CN1CCNCC1 + O
- viscosity (298.15 K, 101 kPa, x1 = 0.1039): 10.75 ± 0.24 mPa·s

Compound: OCCO + CCCCO
- viscosity (298 K, 101.33 kPa, x1 = 0.1527): 3.18 ± 0.03 mPa·s
- viscosity (298 K, 101.33 kPa, x1 = 0.5229): 6.05 ± 0.04 mPa·s
- viscosity (298 K, 101.33 kPa, x1 = 0.7115): 8.75 ± 0.06 mPa·s
- viscosity (298 K, 101.33 kPa, x1 = 0.868): 12.33 ± 0.07 mPa·s

Compound: O=CN1CCOCC1 + Cc1cc(C)cc(C)c1
- viscosity (298.15 K, 101.3 kPa, x2 = 0.02898): 7.041 ± 0.049 mPa·s
- viscosity (298.15 K, 101.3 kPa, x2 = 0.0601): 6.315 ± 0.045 mPa·s
- viscosity (298.15 K, 101.3 kPa, x2 = 0.08748): 5.789 ± 0.042 mPa·s
- viscosity (298.15 K, 101.3 kPa, x2 = 0.1453): 4.838 ± 0.036 mPa·s
- viscosity (298.15 K, 101.3 kPa, x2 = 0.2504): 3.53 ± 0.027 mPa·s
- viscosity (298.15 K, 101.3 kPa, x2 = 0.3197): 2.903 ± 0.022 mPa·s
- viscosity (298.15 K, 101.3 kPa, x2 = 0.4426): 2.093 ± 0.017 mPa·s
- viscosity (298.15 K, 101.3 kPa, x2 = 0.5274): 1.701 ± 0.014 mPa·s
- viscosity (298.15 K, 101.3 kPa, x2 = 0.6167): 1.375 ± 0.011 mPa·s
- viscosity (298.15 K, 101.3 kPa, x2 = 0.661): 1.264 ± 0.01 mPa·s
- viscosity (298.15 K, 101.3 kPa, x2 = 0.7503): 1.058 ± 0.009 mPa·s
- viscosity (298.15 K, 101.3 kPa, x2 = 0.8348): 0.877 ± 0.007 mPa·s
- viscosity (298.15 K, 101.3 kPa, x2 = 0.9476): 0.731 ± 0.006 mPa·s
